Measurements published in patent publication US20230323358A1, “COMPOSITION AND USE OF siRNAs AGAINST VEGFR2 AND TGF-BETA1 IN COMBINATION THERAPY FOR CANCER” (Sirnaomics, Inc., priority 2021, published 2023).
Like-named read-outs stand apart in the source and are kept apart here. Oligonucleotides are written 5' to 3', each unit as a sugar letter and its base; * is a phosphorothioate linkage, no mark a phosphodiester; rarer units and linkages stand in square brackets, end groups in braces. Plain capitals give the bases only. {P} = phosphate; d = 2'-deoxy (DNA); m = 2'-O-methyl; r = 2'-OH (RNA); f = 2'-fluoro

Key:
[1] = system: TGF-β1; assay: EC50 of TGF-β1 siRNA candidates before and after modification, knockdown in cells; assay type: cell-based, human
Protocol: DLD-1, RKO, U87-MG and PANC-1 cells were seeded into 24-well cell plates (1 × 10^5/well), and then siRNAs (21mer or negative control) were transfected with commercial transfection reagent (lipo2000). The siRNA transfection concentration was 100 nM. Untreated cells were set as a blank control. Total RNA was extracted from cells 24 h after transfection. Reverse transcription was performed using the kit to obtain cDNA according to the manufacturer’s instructions. Relative levels of target gene TGF- β1 mRNA expression were determined by real-time PCR, normalized to the housekeeping gene β-actin. Gene knockdown effectiveness was expressed as a percentage of the blank control. […] Therefore, TF1-21-hm3# and TF1-21-hm6# were selected as candidate sequences, and these two sequences were modified (see Table 4 for modified sequences).
The EC50 of candidate sequences before and after modification in different cells (U87-MG, DLD-1, SK-Hep-1, BxPC3, A549, HUCCT, PANC-1 and RKO) were compared. U87-MG, DLD-1, SK-Hep-1, BxPC3, A549, HUCCT, PANC-1 and RKO cells were seeded in 24-well cell plates (1 × 10^5/well) and transfected with multiple concentration gradients in different cells for siRNA candidates (modified or unmodified), use the same procedure as for primary screening. Finally, the data were plotted using the software GraphPad Prism8 and EC50 values were calculated.

[2] = system: TGF-β1; assay: as above; assay type: cell-based; settings: 293T cells, homo, 24h, 24well (second TGF-β1 table)
[3] = system: B 16-F0 cells; assay: In vivo pharmacodynamics on melanoma (B16) in immunocompetent mouse model; settings: positive control, 4 mg/kg i.p. QW
Protocol: The STP355 drug used in this example is the STP355 drug prepared in Example 9. C57BL/6J mice were inoculated with B 16-F0 cells subcutaneously on the back, inoculation volume: 1×10^6/100 µL/mice, 50 mice were inoculated, location: the right back of the mice. The average tumor volume was 80~100 mm^3 and started to be administered in groups. The dose of 2 mg/kg was administered intravenously, twice a week, for a total of 8 administrations, and the positive control group was administered with cisplatin, […], A total of 8 doses were administered.

[4] = system: MC38-hPDL1 cells; assay: In vivo pharmacodynamics on humanized PDL1 locus colorectal cancer tumors (MC38-hPDL1) in immunocompetent mice; design: species or system C57BL/6J mice; settings: positive control 4mpk, BIW*4W, I.P.
Protocol: The STP355 drug used in this example is the STP355 drug prepared in Example 9. C57BL/6J mice were subcutaneously inoculated with humanized PDL1 locus colorectal cancer tumor MC38-hPDL1 cells on the back, inoculation volume: 1×10^6/100 µL/mouse, inoculation location: above the right thigh of the mouse. When the average tumor volume reached 100 mm^3, group administration was started, divided into 4 groups, 8 animals/group. In this experiment, the doses of 4 mg/kg and 6 mg/kg were tested, and a model group was established, and the positive control group Tecentrip (atezolizumab) . The drug was administered twice a week for a total of 8 times. On the 0th, 3rd, 7th, 10th, 14th, 17th, 21st, 24th and 28th days, the tumor volume was measured with a vernier caliper, and the tumor growth inhibition rate TGI% was calculated according to the formula.
Calculation formula: TGI % = [1-(Ti-T0)/ (Vi-V0)] ×100%. • Ti represents the mean tumor volume of the treatment group at a certain time point, • T0 represents the mean tumor volume of the treatment group on day 0, • Vi represents the mean tumor volume of the model group at the same time point as Ti, • V0 represents the mean tumor volume of the model group at day 0.

[5] = A549 cells, homo, 24 h, 24well (Table 6), read-out: EC50 (nM, 24 h, 24well) A549
[6] = A549 cells, homo, 24h, 24well (second TGF-β1 table), read-out: EC50 (24h, nM, 24well) A549
[7] = BxPC3 cells, homo, 24 h, 24well (Table 6), read-out: EC50 (nM, 24 h, 24well) BxPC3
[8] = DLD-1 cells, Homo, 24h, 24well (second TGF-β1 table), read-out: EC50 (24h, nM, 24well) DLD-1
[9] = DLD-1 cells, homo, 24 h, 24well (Table 6), read-out: EC50 (nM, 24 h, 24well) DLD-1
[10] = Hucct cells, homo, 24 h, 24well (Table 6), read-out: EC50 (nM, 24 h, 24well) Hucct
[11] = Hucct cells, homo, 24h, 24well (second TGF-β1 table), read-out: EC50 (24h, nM, 24well) Hucct
[12] = PANC-1 cells, homo, 24 h, 24well (Table 6), read-out: EC50 (nM, 24 h, 24well) PANC-1
[13] = PANC-1 cells, homo, 24h, 24well (second TGF-β1 table), read-out: EC50 (24h, nM, 24well) PANC -1
[14] = RKO cells, homo, 24 h, 24well (Table 6), read-out: EC50 (nM, 24 h, 24well) RKO
[15] = RKO cells, homo, 24h, 24well (second TGF-β1 table), read-out: EC50 (24h, nM, 24well) RKO
[16] = SK-Hep1 cells, homo, 24 h, 24well (Table 6), read-out: EC50 (nM, 24 h, 24well) SK-Hep1
[17] = U87MG cells, homo, 24 h, 24well (Table 6), read-out: EC50 (nM, 24 h, 24well) U87MG
[18] = U87MG cells, homo, 24h, 24well (second TGF-β1 table), read-out: EC50 (24h, nM, 24well) U87M G

TF1-21-hm6#: siRNA targeting TGF-β1 mRNA; sense SEQ ID 26, antisense SEQ ID 36 (sense CGGCAGCUGUACAUUGACUTT; antisense AGUCAAUGUACAGCUGCCGTT; sugars from the 5' end r19 d2, backbone not given here)
EC50 [1, 5]: 3.02 nM
EC50 [1, 6]: 3 nM
EC50 [1, 7]: 0.03 nM
EC50 [1, 8]: 0.9 nM
EC50 [1, 9]: 0.85 nM
EC50 [1, 10]: 0.01 nM
EC50 [1, 11]: 0.007 nM
EC50 [1, 12]: 12.7 nM
EC50 [1, 13]: 12.7 nM
EC50 [1, 14]: 0.05 nM
EC50 [1, 15]: 0.048 nM
EC50 [1, 16]: 0.22 nM
EC50 [1, 17]: 0.12 nM
EC50 [1, 18]: 0.1 nM
EC50 [2]: 0.11 nM

TF1-21-hm3#: siRNA targeting TGF-β1 mRNA; sense SEQ ID 23, antisense SEQ ID 33 (sense AACUAUUGCUUCAGCUCCATT; antisense UGGAGCUGAAGCAAUAGUUTT; sugars from the 5' end r19 d2, backbone not given here)
EC50 [1, 5]: 1.36 nM
EC50 [1, 6]: 1.4 nM
EC50 [1, 7]: 0.25 nM
EC50 ([1]; BxPC 3 cells, homo, 24h, 24well (second TGF-β1 table), read-out: EC50 (24h, nM, 24well) BxPC 3): 11.9 nM
EC50 [1, 8]: 0.2 nM
EC50 [1, 9]: 0.15 nM
EC50 [1, 10]: 0.03 nM
EC50 [1, 11]: 0.029 nM
EC50 [1, 12]: 6.65 nM
EC50 [1, 13]: 6.6 nM
EC50 [1, 14]: 0.1 nM
EC50 [1, 15]: 0.1 nM
EC50 [1, 16]: 3.16 nM
EC50 [1, 17]: 0.29 nM
EC50 [1, 18]: 0.3 nM

N.N.[Cl][Pt][Cl] [cisplatin]
anti-tumor effect [3]: significant anti-tumor effects

TF1-20190711-1#: siRNA targeting TGF-β1 mRNA; sense SEQ ID 1, antisense SEQ ID 2 (sense GCAGAGUACACACAGCAUATT; antisense UAUGCUGUGUGUACUCUGCTT; sugars from the 5' end r19 d2, backbone not given here)
EC50 [1, 11]: 0.002 nM
EC50 ([1]; SK-Hep 1 cells, homo, 24h, 24well (second TGF-β1 table), read-out: EC50 (24h, nM, 24well) SK-Hep 1): 1.6 nM
EC50 [2]: 0.08 nM

atezolizumab [Tecentrip]
tumor weight versus model group [4]: significantly lower than the model group
tumor volume versus model control group ([4]; day 7 to day 28): significantly smaller than that of the model control group

TF1-21-hm3#mod: Modified (2′F, 2′OME, phosphorylation) siRNA targeting TGF-β1; sense SEQ ID 147, antisense SEQ ID 151 (sense mAmAmCmUmAmUfUfGfCmUmUmCmAmGmCmUmCmCmAdTdT; antisense {P}-mUfGmGmAmGmCmUmGmAmAmGmCmAfAmUmAmGmUmUdTdT)
EC50 [1, 5]: 0.04 nM
EC50 [1, 6]: 0.04 nM
EC50 [1, 7]: 0.17 nM
EC50 [1, 9]: 0.02 nM
EC50 [1, 12]: 0.02 nM
EC50 [1, 14]: 0.08 nM
EC50 [1, 15]: 0.08 nM
EC50 [1, 16]: 2.64 nM
EC50 [1, 17]: 1.48 nM

TF1-21-hm6#mod: Modified (2′F, 2′OME, phosphorylation) siRNA targeting TGF-β1; sense SEQ ID 148, antisense SEQ ID 152 (sense mCmGmGmCmAmGfCfUfGmUmAmCmAmUmUmGmAmCmUdTdT; antisense {P}-mAfGmUmCmAmAmUmGmUmAmCmAmGfCmUmGmCmCmGdTdT)
EC50 [1, 5]: 0.22 nM
EC50 [1, 7]: 0.01 nM
EC50 [1, 14]: 0.04 nM
EC50 [1, 16]: 0.59 nM
EC50 [1, 17]: 0.09 nM
EC50 [2]: 0.1 nM

TF1-21-hm7#: siRNA targeting TGF-β1 mRNA; sense SEQ ID 27, antisense SEQ ID 37 (sense GGCAGCUGUACAUUGACUUTT; antisense AAGUCAAUGUACAGCUGCCTT; sugars from the 5' end r19 d2, backbone not given here)
EC50 [1, 6]: 0.1 nM
EC50 [1, 8]: 0.7 nM
EC50 [1, 11]: 0.031 nM
EC50 [1, 13]: 12 nM
EC50 [1, 15]: 0.1 nM
EC50 [1, 18]: 0.6 nM

TF1-20190711-1#mod: Modified siRNA targeting TGF-β1; sense SEQ ID 149, antisense SEQ ID 153 (sense GCAGAGUACACACAGCAUATT; antisense UAUGCUGUGUGUACUCUGCTT; sense: sugars from the 5' end m6 f3 m10 d2, backbone not given here; antisense: sugars from the 5' end mfmmmmmmmmmmmfmmmmmdd, 5' {P}, backbone not given here)
EC50 [2]: 0.25 nM
